Calls of active or inactive are those of the source. The calls are words filed in the database; no cut-off is given here.
What was measured:
[1] = species: Sus scrofa; assay: Activity of pig recombinant catechol-O-methyltransferase assessed per unit enzyme
[2] = species: Sus scrofa; assay: Inhibition of pig recombinant catechol-O-methyltransferase at 100 uM

SMILES | Activity [1] [pmol/min] | Activity [2]
N#C/C(=C\c1ccc(O)c(O)c1)C(=O)O | 3.67 | 
N#C/C(=C\c1ccc(O)c(O)c1)C(=O)NCc1ccccc1 | 3.06 | 
C[C@H](NC(=O)/C(C#N)=C/c1ccc(O)c(O)c1)c1ccccc1 | 3.08 | 
C[C@@H](NC(=O)/C(C#N)=C/c1ccc(O)c(O)c1)c1ccccc1 | 3.06 | 
N#C/C(=C\c1ccc(O)c(O)c1)C(=O)NCCCc1ccccc1 | 3.11 | 
N#C/C(=C\c1ccc(O)c(O)c1)C(=O)NCCCCc1ccccc1 | 2.84 | 
N#CC(C#N)=Cc1cc(O)c(O)c([N+](=O)[O-])c1 | 0.05 | Active
N#CC(C#N)=Cc1ccc(O)c(O)c1 | 2.44 | 
N#CC(C#N)=Cc1cc(O)c(O)c(O)c1 | 1.65 | 
N#C/C(=C\c1ccc(O)c(O)c1)C(N)=O | 2.98 | 
COc1c(C(C)(C)C)cc(C=C(C#N)C#N)cc1C(C)(C)C | 0.04 | 
N#C/C(=C\c1ccc(O)c(O)c1)C(N)=S | 2.45 | 
N#CC(C#N)=Cc1ccc(O)cc1 | 0.05 | 
N#CC(C#N)=C(N)/C(C#N)=C/c1cc(O)c(O)c(O)c1 | 1.79 | 

Reference: ChEMBL document CHEMBL1145513, “S-adenosylmethionine-dependent protein methylation in mammalian cytosol via tyrphostin modification by catechol-O-methyltransferase” (J Biol Chem, 2007)
